Assay: Plasma concentrations after oral administration in laboratory rats
Type: in vivo, rat

plasma concentrations after oral administration	SMILES
high and prolonged plasma concentrations	COc1ccccc1-c1ccc(OC2CN(C(=O)Nc3cccnn3)C2)nc1 [Example 17, 3-[5-(2-Methoxy-phenyl)-pyridin-2-yloxy]-azetidine-1-carboxylic acid pyridazin-3-ylamine]
high and prolonged plasma concentrations	O=C(Nc1cccnn1)N1CC(Oc2ccc(-c3ccccc3F)cn2)C1 [Example 18, 3-[5-(2-Fluoro-phenyl)-pyridin-2-yloxy]-azetidine-1-carboxylic acid pyridazin-3-ylamide]

Continued, compound first:

SMILES	plasma concentrations after oral administration
O=C(Nc1cccnc1)N1CC(Oc2ccc(-c3ccccc3)cc2)C1 [Example 4, 3-(Biphenyl-4-yloxy)-azetidine-1-carboxylic acid pyridin-3-ylamide]	high and prolonged plasma concentrations
COCCOc1cccc(-c2ccc(OC3CN(C(=O)Nc4cccnn4)C3)nc2)c1 [Example 7, 3-{5-[3-(2-Methoxy-ethoxy)-phenyl]-pyridin-2-yloxy}-azetidine-1-carboxylic acid pyridazin-3-ylamide]	high and prolonged plasma concentrations
O=C(Nc1cccnn1)N1CC(Oc2ccc(-c3ccccc3)cn2)C1 [Example 13, 3-(5-Phenyl-pyridin-2-yloxy)-azetidine-1-carboxylic acid pyridazin-3-ylamide]	high and prolonged plasma concentrations

Reference: US10383871B2, “Azetidine derivatives” (Vernalis (R&D) Ltd, priority 2008, dated 2019)
